Test in all cases: Cross resistance to bleaching herbicides, in vitro PDS inhibition, non-His-tagged (Table 2)
Test [1] deals with hydrilla PDS position 304 Arginine (wildtype) (Hydrilla verticillata, UniProt Q66PY0). The test is classed as biochemical. To be noted: for R/S: Arginine at 304 (reference), Table 2; for IC50: Arginine at 304, construct in frame with LacZalpha-ccdB, non-His-tagged, read-out: I50. The method, then: (§1) The expression constructs in Table 2 were derived from an original clone of the susceptible PDS gene from Hydrilla and then the Arg^304 was mutated to the listed amino acid. Expression was under the control of the lac promoter but in frame with the initiation codon of the LacZalpha-ccdB gene in the pCR4-TOPO vector (Invitrogen Inc., CA, Cat. #K4575-01).
Sequence of hydrilla PDS position 304 Arginine (wildtype) (Q66PY0 1-580): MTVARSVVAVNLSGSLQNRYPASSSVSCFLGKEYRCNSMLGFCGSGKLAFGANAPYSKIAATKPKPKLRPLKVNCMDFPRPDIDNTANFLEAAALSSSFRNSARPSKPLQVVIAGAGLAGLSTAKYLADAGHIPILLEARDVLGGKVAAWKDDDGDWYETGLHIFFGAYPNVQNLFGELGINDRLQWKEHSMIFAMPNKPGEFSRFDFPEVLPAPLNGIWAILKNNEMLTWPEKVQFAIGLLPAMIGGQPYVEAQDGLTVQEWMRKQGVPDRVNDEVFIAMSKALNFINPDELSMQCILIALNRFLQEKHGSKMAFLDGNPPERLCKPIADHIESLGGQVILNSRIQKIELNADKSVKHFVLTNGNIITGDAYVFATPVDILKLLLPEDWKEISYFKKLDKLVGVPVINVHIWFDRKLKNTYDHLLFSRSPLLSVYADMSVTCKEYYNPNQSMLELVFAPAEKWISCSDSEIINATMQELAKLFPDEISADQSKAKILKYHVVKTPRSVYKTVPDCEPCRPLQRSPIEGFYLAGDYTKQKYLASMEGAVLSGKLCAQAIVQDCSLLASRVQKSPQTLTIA
(§2) All mutagenesis was performed, unless stated otherwise, using the TOPO-vector containing the wildtype (H4) PDS-sequence, which was extracted from an overnight culture with the Qiagen Plasmid Prep Kit as described above. The amount of the extracted plasmid was diluted to 10 ng/μl and used as template in a mutagenesis-procedure using the QuikChange Site-directed Mutagenesis Kit (Stratagene, Calif., #200518). The design of the mutagenesis-primers was conducted according to the manufacturers protocol to enable the specific change of Arg^304-codon to code for the desired amino acid. Primers (purchased from MWG-Biotech) and their introduced amino acid change are listed below with the changed codon underlined:
(§3) The reactions were performed according to the manufacturers protocol. Reactions were set up in MicroAmp-tubes on ice with 38 μl ddH2O, 5 μl 10× reaction buffer, 2 μl plasmid (10 ng/μl), 1.25 μl forward-mutagenesis primer (100 ng/μl), 1.25 μl of reverse mutagenesis primer (100 ng/μl), 1 μl dNTP-mix and 1 μl PfuTurboDNA polymerase (2.5 U/μl). The reactions were placed in a PE 9700 thermal cycler and heated to 95° C. for 30 sec followed by 12 rounds at 95° C. for 30 sec, 55° C. for 1 min and 68° C. for 12 min. The PCR was followed by a DpnI-digestion and transformation in XL1-Blue supercompetent cells as described in the manual. 4-6 resulting colonies were grown overnight in LB-medium with kanamycin and plasmid DNA was isolated as described above. The plasmid was used as template for sequencing with M13 and internal PDS-primers as described above on a LiCOR-system. Sequences were assembled and analyzed using Seqman. Introduced mutations were identified and plasmids carrying the desired mutation(s) were transferred into competent TOP10-cells, using the transformation protocol from the TOPO TA Cloning Kit. Resulting colonies were grown overnight in Wu-broth with kanamycin, aliquoted and stored at −80° C. until further use. 1 ml of Wu-cultures was used to start 1-L LB-cultures with kanamycin as described before, to express active PDS-enzyme for testing as described.
(§4) Phytoene desaturase activity and its inhibition by herbicides was determined using an in vitro system using components derived from the in vivo production of phytoene and phytoene desaturase proteins. All mutations described in Examples 3 and 4 were tested. […] The clones were used for the heterologous expression of Hydrilla-PDS-enzyme. In particular, bacterial cultures were grown from single colonies overnight in Wu-broth (6.27 g/L K2HPO4, 1.8 g/L KH2PO4, 0.5 g/L Na-citrate, 0.9 g/L (NH4)2SO4, 10 g/L tryptone, 5 g/L yeast extract, 10 g/L NaCl, 44 ml/L glycerol, 0.1 mM MgSO4, pH 7.2) with kanamycin. 1-mL was aliquoted in centrifuge tube and stored at −80° C. For expression, 1 L LB-medium with kanamycin was inoculated with 1-mL Wu-culture and grown for 24 h at 37° C. to stationary phase with shaking at 200 rpm. The cells were collected by centrifugation at 2000×g. All of the following steps were done at 4° C. unless otherwise noted. Active soluble PDS enzyme was extracted by lysing the transformed E. coli cells using a French Press at 20,000 psi in assay buffer consisting of 100 mM Tris-HCl, pH 7.2, 10 mM magnesium-chloride, 0.1 mM NADP, 0.1 mM FAD, 10 mM cysteine, 5 mM DTT, 1 mM aminocaproic acid, and 1 μg/ml leupeptin. The soluble fraction containing PDS activity was obtained by centrifugation for 10 min at 1200×g. After 24 h they were centrifuged down and used in PDS enzyme activity assays as described below.

The subject of test [2] is hydrilla PDS Arg^304 → Histidine. Type of test: biochemical, Hydrilla verticillata. To be noted: Histidine at 304 relative to Arginine; Table 2. The method, then:
as §1, §2, §3, §4

In test [3] the target is hydrilla PDS Arg^304 → Histidine (Hydrilla verticillata, UniProt Q66PY0, R304H). Type of test: biochemical. To be noted: Histidine at 304; construct in frame with LacZalpha-ccdB, non-His-tagged; read-out: I50. The method, then:
as §1, §2, §3, §4

Test [4] relates to hydrilla PDS Arg^304 → Serine. Type of test: biochemical, Hydrilla verticillata. To be noted: Serine at 304 relative to Arginine; Table 2. The method, then: as §1, §2, §3, §4
Test [5] relates to hydrilla PDS Arg^304 → Cysteine. The test is classed as biochemical, Hydrilla verticillata. To be noted: Cysteine at 304 relative to Arginine; Table 2. The method, then: as §1, §2, §3, §4
Test [6] addresses hydrilla PDS Arg^304 → Cysteine (Hydrilla verticillata, UniProt Q66PY0, R304C). The test is classed as biochemical. To be noted: Cysteine at 304; construct in frame with LacZalpha-ccdB, non-His-tagged; read-out: I50. The method, then: as §1, §2, §3, §4

These results are taken from patent US20110098180A1, “Herbicide-Resistant Plants, And Polynucleotides And Methods For Providing Same” (United States Department of Agriculture, priority 2002, published 2011).

Sequence of hydrilla PDS Arg^304 → Histidine (Hydrilla verticillata, UniProt Q66PY0, R304H) (Q66PY0 1-580 R304H): as the sequence (Q66PY0 1-580) above, with R304H counted along it
Sequence of hydrilla PDS Arg^304 → Cysteine (Hydrilla verticillata, UniProt Q66PY0, R304C) (Q66PY0 1-580 R304C): as the sequence (Q66PY0 1-580) above, with R304C counted along it

`CCC(Oc1ccc(F)c(C(F)(F)F)c1)C(=O)NCc1ccccc1` (centres unmarked) [Beflubutamid]: the R/S in test [1] was 1; in test [2], 0.7; in test [4] it was 0.6; in test [5], 0.8. Moreover, the IC50 in test [1] came out at 4.3 µM; in test [3] it was 3 µM; in test [6], 3.5 µM.

Turning to `O=C(Nc1ccc(F)cc1F)c1cccnc1Oc1cccc(C(F)(F)F)c1` [Diflufenican], the R/S is listed as 1 in test [1], 0.4 in test [2], 0.2 in test [4] and 0.4 in test [5]. The figures for the IC50 in test [1], in test [3] and in test [6] were 5.8 µM, 2 µM and 2.1 µM, respectively.

In the case of `O=C1C(Cl)C(CCl)CN1c1cccc(C(F)(F)F)c1` (centres unmarked) [Fluorochloridone], the R/S is 1 in test [1], 1.1 in test [2], 1.9 in test [4] and 3.6 in test [5]. The IC50 in test [1] came to 12.2 µM; in test [3] it was 14 µM; in test [6], 44.3 µM.

On to `CNC1=C(c2cccc(C(F)(F)F)c2)C(=O)C(c2ccccc2)O1` (centres unmarked) [Flurtamone], for which the R/S in test [1] worked out at 1; in test [2], 1.2; in test [4], 2.1; in test [5], 1.9. For the same compound, the IC50 in test [1] amounted to 2.8 µM; in test [3], 3.3 µM; in test [6], 5.3 µM.

For `CNc1cnn(-c2cccc(C(F)(F)F)c2)c(=O)c1Cl` [Norflurazon], the IC50 in test [1] amounted to 3.1 µM; in test [3] it was 5 µM; in test [6], 89.4 µM. The R/S in test [2] amounted to 1.6; in test [4], 17.7; in test [5], 28.8.

As for `O=C(Nc1ccc(F)cc1)c1cccc(Oc2cccc(C(F)(F)F)c2)n1` [Piconilafen, Picolinafen], the results for the IC50 in test [1], in test [3] and in test [6] were 5.6 µM, 3 µM and 2.4 µM, respectively. The values for the R/S in test [2], in test [4] and in test [5] were 0.5, 0.4 and 0.4, respectively.

As for Fluridone, the R/S in test [1] is given as 1; in test [2], 2.8; in test [4] it was 5.5; in test [5], 3.2.
